Reference: patent US20100184674A1, “PROADRENOMEDULLIN ALONE OR IN COMBINATION WITH BIG GASTRIN I AS A THERAPEUTIC AGENT” (priority 2007, published 2010)
Where no end group is shown, it is not given here. [ ]: non-standard residue; d: D form. pGlu = O=C1CC[C@@H](C(=O)O)N1

Test system: drug-resistant Mycobacterium tuberculosis
Assay type: cell-based
Conditions: 10 micrograms per ml; seven days; strain resistant against PAS, streptomycin and isoniazid

| Substance | inhibition of the growth of Mycobacterium tuberculosis |
| --- | --- |
| Ala-Arg-Leu-Asp-Val-Ala-Ser-Glu-Phe-Arg-Lys-Lys-Trp-Asn-Lys-Trp-Ala-Leu-Ser-Arg-NH2 (ARLDVASEFRKKWNKWALSR-NH2) [Peptide 1] | 100% |
| Pyr-Leu-Gly-Pro-Gln-Gly-Pro-Pro-His-Leu-Val-Ala-Asp-Pro-Ser-Lys-Lys-Gln-Gly-Pro-Trp-Leu-Glu-Glu-Glu-Glu-Glu-Ala-Tyr-Gly-Trp-Met-Asp-Phe-NH2 ([pGlu]LGPQGPPHLVADPSKKQGPWLEEEEEAYGWMDF-NH2; SMILES CSCC[C@H](NC(=O)[C@H](Cc1c[nH]c2ccccc12)NC(=O)CNC(=O)[C@H](Cc1ccc(O)cc1)NC(=O)[C@H](C)NC(=O)[C@H](CCC(=O)O)NC(=O)[C@H](CCC(=O)O)NC(=O)[C@H](CCC(=O)O)NC(=O)[C@H](CCC(=O)O)NC(=O)[C@H](CCC(=O)O)NC(=O)[C@H](CC(C)C)NC(=O)[C@H](Cc1c[nH]c2ccccc12)NC(=O)[C@@H]1CCCN1C(=O)CNC(=O)[C@H](CCC(N)=O)NC(=O)[C@H](CCCCN)NC(=O)[C@H](CCCCN)NC(=O)[C@H](CO)NC(=O)[C@@H]1CCCN1C(=O)[C@H](CC(=O)O)NC(=O)[C@H](C)NC(=O)[C@@H](NC(=O)[C@H](CC(C)C)NC(=O)[C@H](Cc1c[nH]cn1)NC(=O)[C@@H]1CCCN1C(=O)[C@@H]1CCCN1C(=O)CNC(=O)[C@H](CCC(N)=O)NC(=O)[C@@H]1CCCN1C(=O)CNC(=O)[C@H](CC(C)C)NC(=O)[C@@H]1CCC(=O)N1)C(C)C)C(=O)N[C@@H](CC(=O)O)C(=O)N[C@@H](Cc1ccccc1)C(N)=O) [Peptide 2] | 100% |
